PMC12257356, “Structure-guided engineering of a polyphosphate kinase 2 class III from an Erysipelotrichaceae bacterium to produce base-modified purine nucleotides” (RSC Chemical Biology, 2025)

Key:
[1] = biological target: T1, EbPPK2 (polyphosphate kinase 2 class III from an Erysipelotrichaceae bacterium) (Erysipelotrichaceae bacterium, UniProt P0DY74); assay: HPLC conversion to NDP/NTP; assay type: biochemical; settings: 1 mM NMP, 1 μM enzyme, 6.1 g/L sodium polyphosphate, 20 mM MgCl2, 20 mM Tris pH 8, 30 °C, 10 min
T1 construct: gene DHS57_05705; purified; 146 kDa homotetramer
T1 sequence (P0DY74 1-298): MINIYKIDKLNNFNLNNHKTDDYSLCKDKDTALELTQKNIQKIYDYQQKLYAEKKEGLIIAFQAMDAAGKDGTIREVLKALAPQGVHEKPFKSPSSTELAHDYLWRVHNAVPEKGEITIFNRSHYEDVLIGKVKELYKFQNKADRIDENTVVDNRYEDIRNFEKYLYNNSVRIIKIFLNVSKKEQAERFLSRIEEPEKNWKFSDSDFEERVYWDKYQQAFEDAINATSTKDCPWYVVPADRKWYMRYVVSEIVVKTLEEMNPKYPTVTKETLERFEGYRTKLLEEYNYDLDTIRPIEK

[2] = biological target: T1, EbPPK2 (polyphosphate kinase 2 class III from an Erysipelotrichaceae bacterium); assay: X-ray crystal structure; settings: 1.7 Å; ternary complex with polyP and Mg2+; nucleotide-binding pocket of the active site

SMILES | HPLC conversion to NDP/NTP [1] | X-ray crystal structure [2]
Nc1nc2c(ncn2[C@@H]2O[C@H](COP(=O)(O)O)[C@@H](O)[C@H]2O)c(=O)[nH]1 [5a, GMP] | GMP and GMP-like analogues were phosphorylated more slowly by EbPPK | –
Nc1ncnc2c1ncn2[C@@H]1O[C@H](COP(=O)(O)O)[C@@H](O)[C@H]1O [1a, AMP] | Starting from AMP (1a), the reaction approached a distribution of AMP | –
Nc1ncnc2c1ncn2[C@@H]1O[C@H](COP(=O)(O)OP(=O)(O)CP(=O)(O)O)[C@@H](O)[C@H]1O [adenosine-5′-[(β,γ)-methyleno]triphosphate] | – | EbPPK2 in complex with the non-hydrolysable ATP analogue adenosine-5′-[(β,γ)-methyleno]triphosphate (ACP) and polyP (PDB: 9IGQ)
